# Assay results reported in patent publication US20110160196A1, “FACTOR XA INHIBITORS” (Millennium Pharmaceuticals, Inc., priority 2007, published 2011).
# Target: T1, human plasma protein factor Xa (Homo sapiens, UniProt P00742)
# T1 construct: The human plasma protein factor Xa was purchased; purchased Haematologic Technologies (Essex Junction, Vt.); host or cells: human plasma
# Assay: Factor Xa IC50 determination (cleavage of paranitroanilide substrate S-2765)
# Type: biochemical
# Conditions: factor Xa 1 nM, S-2765 100 μM, Tris buffered saline pH 7.4, read at 405 nm
# Method in brief: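 Human plasma factor Xa (1 nM) preincubated 5 min at room temperature with inhibitor (0.01 nM–10 μM) in Tris-buffered saline pH 7.4 with 5 mM CaCl2, 0.1% BSA, 5% DMSO. S-2765 added at 100 μM final; pNA release followed at 405 nm for 2 min. IC50 from four-parameter fit of initial velocities.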
# T1 sequence (P00742 235-488 limits assumed): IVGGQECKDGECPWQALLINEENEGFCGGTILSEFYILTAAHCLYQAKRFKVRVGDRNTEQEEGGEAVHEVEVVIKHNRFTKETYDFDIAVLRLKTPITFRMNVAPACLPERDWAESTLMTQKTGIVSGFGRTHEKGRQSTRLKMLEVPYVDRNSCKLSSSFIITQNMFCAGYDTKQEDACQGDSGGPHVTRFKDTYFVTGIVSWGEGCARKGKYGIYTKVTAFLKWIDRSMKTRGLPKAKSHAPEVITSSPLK
# T1 sequence (P00742 41-179 partner limits assumed): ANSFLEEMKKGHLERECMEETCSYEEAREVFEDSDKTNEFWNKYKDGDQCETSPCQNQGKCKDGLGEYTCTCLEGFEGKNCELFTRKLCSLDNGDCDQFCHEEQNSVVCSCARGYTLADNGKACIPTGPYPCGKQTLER
row,SMILES,IC50 [µM]
1,"O=C(NCc1nnn(-c2ccc(-n3ccccc3=O)cc2OC[C@@H](O)CO)c1I)c1ccc(Cl)s1 [Compound 155, 5-Chloro-N-((1-(2-((S)-2,3-dihydroxypropoxy)-4-(2-oxopyridin-1(2H)-yl)phenyl)-5-iodo-1H-1,2,3-triazol-4-yl)methyl)thiophene-2-carboxamide]",≤ 0.1
2,"O=C(NCc1cn(-c2ccc(-n3ccccc3=O)cc2OCCn2cccn2)nn1)c1ccc(Cl)s1 [Compound 156, N-((1-(2-(2-(1H-Pyrazol-1-yl)ethoxy)-4-(2-oxopyridin-1(2H)-yl)phenyl)-1H-1,2,3-triazol-4-yl)methyl)-5-chlorothiophene-2-carboxamide]",≤ 0.1
3,"O=C(NCc1cn(-c2ccc(N3CCCCC3=O)cc2N2CCSCC2)nn1)c1ccc(Cl)s1 [Compound 157, 5-Chloro-N-((1-(4-(2-oxopiperidin-1-yl)-2-thiomorpholinophenyl)-1H-1,2,3-triazol-4-yl)methyl)thiophene-2-carboxamide]",≤ 0.1
4,"O=C(NCc1cn(-c2ccc(N3CCCCC3=O)cc2N2CCS(=O)(=O)CC2)nn1)c1ccc(Cl)s1 [Compound 158, 5-Chloro-N-((1-(4-(2-oxopiperidin-1-yl)-2-((1,1-dioxo)thiomorpholino)phenyl)-1H-1,2,3-triazol-4-yl)methyl)thiophene-2-carboxamide]",≤ 0.1
5,"O=C1CN(c2cc(N3CCCCC3=O)ccc2-n2cc(CNC(=O)c3ccc(Cl)s3)nn2)CCN1 [Compound 159, 5-Chloro-N-((1-(2-(3-oxopiperazin-1-yl)-4-(2-oxopiperidin-1-yl)phenyl)-1H-1,2,3-triazol-4-yl)methyl)thiophene-2-carboxamide]",≤ 0.1
6,"O=C(NCc1cn(-c2ccc(-n3ccccc3=O)cc2CN2CCOCC2)nn1)c1ccc(Cl)s1 [Compound 160, 5-Chloro-N-((1-(2-(morpholinomethyl)-4-(2-oxopyridin-1(2H)-yl)phenyl)-1H-1,2,3-triazol-4-yl)methyl)thiophene-2-carboxamide]",≤ 0.1
7,"O=C1CN(Cc2cc(-n3ccccc3=O)ccc2-n2cc(CNC(=O)c3ccc(Cl)s3)nn2)CCN1 [Compound 161, 5-Chloro-N-((1-(2-((3-oxopiperazin-1-yl)methyl)-4-(2-oxopyridin-1(2H)-yl)phenyl)-1H-1,2,3-triazol-4-yl)methyl)thiophene-2-carboxamide]",≤ 0.1
8,"O=C(NCc1cn(-c2ccc(-n3ccccc3=O)cc2CN2CCSCC2)nn1)c1ccc(Cl)s1 [Compound 162, 5-Chloro-N-((1-(4-(2-oxopyridin-1(2H)-yl)-2-(thiomorpholinomethyl)phenyl)-1H-1,2,3-triazol-4-yl)methyl)thiophene-2-carboxamide]",≤ 0.1
9,"O=C(NCc1cn(-c2ccc(-n3ccccc3=O)cc2CN2CCS(=O)(=O)CC2)nn1)c1ccc(Cl)s1 [Compound 163, 5-Chloro-N-((1-(4-(2-oxopyridin-1(2H)-yl)-2-(1,1,- dioxothiomorpholinomethyl)phenyl)-1H-1,2,3-triazol-4-yl)methyl)thiophene-2-carboxamide]",≤ 0.1
10,"CCOc1cc(-n2ccccc2=O)ccc1-n1cc(CNC(=O)c2ccc(Cl)s2)nn1 [Compound 164, 5-Chloro-N-((1-(2-ethoxy-4-(2-oxopyridin-1(2H)-yl)phenyl)-1H-1,2,3-triazol-4-yl)methyl)thiophene-2-carboxamide]",≤ 0.1
11,"O=C(NCc1cn(-c2ccc(-n3ccccc3=O)cc2OCc2cccnc2)nn1)c1ccc(Cl)s1 [Compound 165, 5-Chloro-N-((1-(4-(2-oxopyridin-1(2H)-yl)-2-(pyridin-3-ylmethoxy)phenyl)-1H-1,2,3-triazol-4-yl)methyl)thiophene-2-carboxamide]",≤ 0.1
12,"O=C(NCc1cn(-c2ccc(-n3ccccc3=O)cc2OCc2ccncc2)nn1)c1ccc(Cl)s1 [Compound 167, 5-Chloro-N-((1-(4-(2-oxopyridin-1(2H)-yl)-2-(pyridin-4-ylmethoxy)phenyl)-1H-1,2,3-triazol-4-yl)methyl)thiophene-2-carboxamide]",≤ 0.1
13,"O=C(NCc1cn(-c2ccc(-n3ccccc3=O)cc2OCCc2ccccn2)nn1)c1ccc(Cl)s1 [Compound 168, 5-Chloro-N-((1-(4-(2-oxopyridin-1(2H)-yl)-2-(2-(pyridin-2-yl)ethoxy)phenyl)-1H-1,2,3-triazol-4-yl)methyl)thiophene-2-carboxamide]",≤ 0.1
14,"O=C(NCc1cn(-c2ccc(-n3ccccc3=O)cc2OCc2ccccn2)nn1)c1ccc(Cl)s1 [Compound 169, 5-Chloro-N-((1-(4-(2-oxopyridin-1(2H)-yl)-2-(pyridin-2-ylmethoxy)phenyl)-1H-1,2,3-triazol-4-yl)methyl)thiophene-2-carboxamide]",≤ 0.1
15,"O=C(NCc1cn(-c2ccc(-n3ccccc3=O)cc2OCc2ccc3ccccc3n2)nn1)c1ccc(Cl)s1 [Compound 170, 5-Chloro-N-((1-(4-(2-oxopyridin-1(2H)-yl)-2-(quinolin-2-ylmethoxy)phenyl)-1H-1,2,3-triazol-4-yl)methyl)thiophene-2-carboxamide]",≤ 0.1

# Second part, the molecule after the results:
row,IC50 [µM],SMILES
1,≤ 0.1,"O=C(NCc1cn(-c2ccc(-n3ccccc3=O)cc2OCc2cscn2)nn1)c1ccc(Cl)s1 [Compound 171, 5-Chloro-N-((1-(4-(2-oxopyridin-1(2H)-yl)-2-(thiazol-4-ylmethoxy)phenyl)-1H-1,2,3-triazol-4-yl)methyl)thiophene-2-carboxamide]"
2,≤ 0.1,"Cc1nc(COc2cc(-n3ccccc3=O)ccc2-n2cc(CNC(=O)c3ccc(Cl)s3)nn2)cs1 [Compound 172, 5-Chloro-N-((1-(2-((2-methylthiazol-4-yl)methoxy)-4-(2-oxopyridin-1(2H)-yl)phenyl)-1H-1,2,3-triazol-4-yl)methyl)thiophene-2-carboxamide]"
3,≤ 0.1,"O=C(NCc1cn(-c2ccc(-n3ccccc3=O)cc2OCc2nc3ccccc3[nH]2)nn1)c1ccc(Cl)s1 [Compound 173, N-((1-(2-((1H-Benzo[d]imidazol-2-yl)methoxy)-4-(2-oxopyridin-1(2H)-yl)phenyl)-1H-1,2,3-triazol-4-yl)methyl)-5-chlorothiophene-2-carboxamide]"
4,≤ 0.1,"O=C(NCc1cn(-c2ccc(-n3ccccc3=O)cc2OCCc2cccnc2)nn1)c1ccc(Cl)s1 [Compound 174, 5-Chloro-N-((1-(4-(2-oxopyridin-1(2H)-yl)-2-(2-(pyridin-3-yl)ethoxy)phenyl)-1H-1,2,3-triazol-4-yl)methyl)thiophene-2-carboxamide]"
5,≤ 0.1,"O=C(NCc1cn(-c2ccc(-n3ccccc3=O)cc2OCc2ncon2)nn1)c1ccc(Cl)s1 [Compound 175, N-((1-(2-((1,2,4-Oxadiazol-3-yl)methoxy)-4-(2-oxopyridin-1(2H)-yl)phenyl)-1H-1,2,3-triazol-4-yl)methyl)-5-chlorothiophene-2-carboxamide]"
6,≤ 0.1,"Cn1ccnc1COc1cc(-n2ccccc2=O)ccc1-n1cc(CNC(=O)c2ccc(Cl)s2)nn1 [Compound 176, 5-Chloro-N-((1-(2-((1-methyl-1H-imidazol-2-yl)methoxy)-4-(2-oxopyridin-1(2H)-yl)phenyl)-1H-1,2,3-triazol-4-yl)methyl)thiophene-2-carboxamide]"
7,≤ 0.1,"O=C(NCc1cn(-c2ccc(-n3ccccc3=O)cc2OCc2ncc[nH]2)nn1)c1ccc(Cl)s1 [Compound 177, N-((1-(2-((1H-Imidazol-2-yl)methoxy)-4-(2-oxopyridin-1(2H)-yl)phenyl)-1H-1,2,3-triazol-4-yl)methyl)-5-chlorothiophene-2-carboxamide]"
